The nature of data set [1]: 3-month/40° C. stability of topical anesthetics. It counts as physicochemical. The following applies: for content as percent (in parentheses), 30 DAYS / content, 30 DAYS / content as percent (in parentheses), 60 DAYS / content, 60 DAYS / content as percent (in parentheses), 90 DAYS / content, 90 DAYS: 40° C.; for content as percent (in parentheses), INITIAL / content, INITIAL: 3-month/40° C. stability; for EXPIRY DATING: tentative expiry dating from 3-month/40° C. stability data. On the procedure:
The tables below show expiration dates for various topical anesthetics, including 3-month/40° C. stability data. Full-term controlled room temperature stability data are used to support the tentative expiry dating.

The conditions of data set [2]: cited from earlier work.
Data set [3] concerns normal human 3D model of epidermal tissue. An excerpt:
The remaining components shown in Example 1 above were reduced accordingly, such as by 30.5%. […] Standard Ointment includes 95% white petrolatum and 5% white wax. Permeation was measuring using Franz type diffusion cells and a normal human 3D model of epidermal tissue.

On to `CCN(CC)CC(=O)Nc1c(C)cccc1C` [Lidocaine], for which, in data set [1], the “content as percent (in parentheses), 30 DAYS” value (shortened to “content as percent … 30 DAYS”) is “(103.0%)”; the “content, 30 DAYS” value is 10.3% W/W; the “content as percent (in parentheses), 60 DAYS” value (from here on “content as percent … 60 DAYS”) is on record as “(101.0%)”; the “content, 60 DAYS” value is recorded as 10.1% W/W. In addition, in data set [1], the “content as percent (in parentheses), 90 DAYS” value (“content as percent … 90 DAYS” for short) is “(104.0%)”; the “content, 90 DAYS” value is on record as 10.4% W/W; the “content as percent (in parentheses), INITIAL” value (“content as percent … INITIAL” for short) was “(100.0%)”; the “content, INITIAL” value was determined as 10.0% W/W. Moreover, the “EXPIRY DATING” value in data set [1] is reported as approximately 2.0 YEARS.
Take `CCCCOc1cc(C(=O)NCCN(CC)CC)c2ccccc2n1` [Dibucaine]: the “duration of action after topical application” value in data set [2] is 3 to 4 h.
Regarding `CCOC(=O)c1ccc(N)cc1` [Benzocaine], in data set [1], the “content as percent … 30 DAYS” value is recorded as “(102.5%)”; the “content, 30 DAYS” value worked out at 20.5% W/W; the “content as percent … 60 DAYS” value was “(102.0%)”; the “content, 60 DAYS” value worked out at 20.4% W/W. In data set [1], the “content as percent … 90 DAYS” value is given as “(98.0%)”; the “content, 90 DAYS” value is 19.6% W/W; the “content as percent … INITIAL” value is recorded as “(99.0%)”; the “content, INITIAL” value came out at 19.8% W/W. For the same molecule, the “EXPIRY DATING” value in data set [1] is listed as approximately 1.2 YEARS. Also, in data set [3], the “Percutaneous Absorption Testing, 12 Hours” value was 100%; the “Percutaneous Absorption Testing, 24 Hours” value is recorded as 100%; the “Percutaneous Absorption Testing, 36 Hours” value is given as 100%; the “Percutaneous Absorption Testing, 48 Hours” value amounted to 100%. Besides, the “time to peak effect (ranking)” value in data set [2] (applied to mucous membranes) is reported as “fastest”.
For `CCCCNc1ccc(C(=O)OCCN(C)C)cc1` [Tetracaine], in data set [1], the “content as percent … 30 DAYS” value is given as “(102.5%)”; the “content, 30 DAYS” value was 4.1% W/W; the “content as percent … 60 DAYS” value was “(100.0%)”; the “content, 60 DAYS” value is reported as 4.0% W/W. In addition, in data set [1], the “content as percent … 90 DAYS” value was “(100.0%)”; the “content, 90 DAYS” value came to 4.0% W/W; the “content as percent … INITIAL” value is reported as “(95.0%)”; the “content, INITIAL” value is recorded as 3.8% W/W. The “EXPIRY DATING” value in data set [1] is approximately 2.0 YEARS. Moreover, in data set [3], the “Percutaneous Absorption Testing, 12 Hours” value is on record as 2%; the “Percutaneous Absorption Testing, 24 Hours” value is recorded as 2%; the “Percutaneous Absorption Testing, 36 Hours” value was found to be 3%; the “Percutaneous Absorption Testing, 48 Hours” value was 3%. Further, the “duration of action after topical application” value in data set [2] is listed as “up to 2 hours”.
